Measured values as given in patent US20070299092A1 (Wyeth, priority 2004, published 2007).
Where two headings read alike, the source gives them in different places.

Columns and labels:
KDR = KDR (Homo sapiens, UniProt P35968); assay: cell-based; conditions: read-out: % Inhibition of KDR kinase autophosphorylation in KDR15 cells, compound conc. 1000 nM
[1] = target: T1, human KDR (VEGF-receptor-2) (Homo sapiens, UniProt P35968); assay: KDR kinase enzyme assay wash-out experiments (irreversible inhibition); type: biochemical
T1 construct: beginning at Met-806; (5′-ATG GAT CCA GAT GM CTC CCA TTG) and ending at Val-1356; made in house
T1 sequence (P35968 806-1356): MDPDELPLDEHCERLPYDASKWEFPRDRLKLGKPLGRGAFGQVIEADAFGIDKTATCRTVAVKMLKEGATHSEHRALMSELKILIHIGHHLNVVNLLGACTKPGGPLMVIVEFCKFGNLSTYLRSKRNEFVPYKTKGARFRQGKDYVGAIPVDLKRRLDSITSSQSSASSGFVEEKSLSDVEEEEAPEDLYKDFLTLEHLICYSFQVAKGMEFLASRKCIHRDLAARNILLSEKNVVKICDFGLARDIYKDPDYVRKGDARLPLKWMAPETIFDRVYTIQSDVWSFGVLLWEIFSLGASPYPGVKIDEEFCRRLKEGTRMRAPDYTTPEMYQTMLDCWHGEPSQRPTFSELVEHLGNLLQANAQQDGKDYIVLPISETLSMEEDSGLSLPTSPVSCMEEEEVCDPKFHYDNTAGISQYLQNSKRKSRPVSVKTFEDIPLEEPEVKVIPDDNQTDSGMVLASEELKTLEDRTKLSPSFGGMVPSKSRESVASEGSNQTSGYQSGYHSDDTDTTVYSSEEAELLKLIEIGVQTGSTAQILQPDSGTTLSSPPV
Procedure: To determine if compounds bound irreversibly to enzyme, plates were washed after the enzyme plus compound pre-incubation step and prior to the addition of ATP. Parallel plates were tested wherein one plate was processed exactly as above while a second plate was washed three times in 100 μl of 4 mM HEPES, pH 7.4, to remove unbound compound. 1× Kinase buffer (30 μl of 1 mM MnCl2, 4 mM HEPES, pH 7.4, 20 μM Na3VO4) and 20 μl of ATP/MgCl2 were added to the wash-out plate. Detection of phosphotyrosinylated peptide for both plates was performed as described above.
For each inhibitor shown in Table 2, two IC50 determinations are shown, one under normal conditions and the other where an intermediate wash-out step is carried out. […] If there was a large increase in the IC50 value in the wash-out experiment compared to the experiment where there was no wash-out, then it was determined that the compound was behaving as a conventional reversible binding inhibitor.

[2] = target: T1, human KDR (VEGF-receptor-2); assay: KDR kinase enzyme assay (DELFIA, KDR-IC-Flag, poly(Glu4-Tyr) peptide); type: biochemical; conditions: for inhibition at 0.1 µM: Concentration 100 nM; for inhibition at 0.1 µM / inhibition at 1 µM: read-out: % Inhibition; for inhibition at 1 µM: Concentration 1000 nM
[3] = system: Human umbilical vein endothelial cells (HUVEC); assay: HUVEC proliferation assay, VEGF-dependent growth ([3H]-thymidine incorporation); type: cell-based; conditions: Homo sapiens, HUVEC
Summary of the method: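 HUVEC seeded 4000 cells/well, attached overnight, then given compound in serum/VEGF-free EBM plus 50 ng/ml VEGF (final); parallel plates used EGM2 with 2% serum lacking VEGF. Incubation 4-5 days at 37° C. DNA synthesis measured by 5 h [3H]-thymidine (1 μCi/well) incorporation, scintillation-counted.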

Sequence of KDR (P35968 20-1356): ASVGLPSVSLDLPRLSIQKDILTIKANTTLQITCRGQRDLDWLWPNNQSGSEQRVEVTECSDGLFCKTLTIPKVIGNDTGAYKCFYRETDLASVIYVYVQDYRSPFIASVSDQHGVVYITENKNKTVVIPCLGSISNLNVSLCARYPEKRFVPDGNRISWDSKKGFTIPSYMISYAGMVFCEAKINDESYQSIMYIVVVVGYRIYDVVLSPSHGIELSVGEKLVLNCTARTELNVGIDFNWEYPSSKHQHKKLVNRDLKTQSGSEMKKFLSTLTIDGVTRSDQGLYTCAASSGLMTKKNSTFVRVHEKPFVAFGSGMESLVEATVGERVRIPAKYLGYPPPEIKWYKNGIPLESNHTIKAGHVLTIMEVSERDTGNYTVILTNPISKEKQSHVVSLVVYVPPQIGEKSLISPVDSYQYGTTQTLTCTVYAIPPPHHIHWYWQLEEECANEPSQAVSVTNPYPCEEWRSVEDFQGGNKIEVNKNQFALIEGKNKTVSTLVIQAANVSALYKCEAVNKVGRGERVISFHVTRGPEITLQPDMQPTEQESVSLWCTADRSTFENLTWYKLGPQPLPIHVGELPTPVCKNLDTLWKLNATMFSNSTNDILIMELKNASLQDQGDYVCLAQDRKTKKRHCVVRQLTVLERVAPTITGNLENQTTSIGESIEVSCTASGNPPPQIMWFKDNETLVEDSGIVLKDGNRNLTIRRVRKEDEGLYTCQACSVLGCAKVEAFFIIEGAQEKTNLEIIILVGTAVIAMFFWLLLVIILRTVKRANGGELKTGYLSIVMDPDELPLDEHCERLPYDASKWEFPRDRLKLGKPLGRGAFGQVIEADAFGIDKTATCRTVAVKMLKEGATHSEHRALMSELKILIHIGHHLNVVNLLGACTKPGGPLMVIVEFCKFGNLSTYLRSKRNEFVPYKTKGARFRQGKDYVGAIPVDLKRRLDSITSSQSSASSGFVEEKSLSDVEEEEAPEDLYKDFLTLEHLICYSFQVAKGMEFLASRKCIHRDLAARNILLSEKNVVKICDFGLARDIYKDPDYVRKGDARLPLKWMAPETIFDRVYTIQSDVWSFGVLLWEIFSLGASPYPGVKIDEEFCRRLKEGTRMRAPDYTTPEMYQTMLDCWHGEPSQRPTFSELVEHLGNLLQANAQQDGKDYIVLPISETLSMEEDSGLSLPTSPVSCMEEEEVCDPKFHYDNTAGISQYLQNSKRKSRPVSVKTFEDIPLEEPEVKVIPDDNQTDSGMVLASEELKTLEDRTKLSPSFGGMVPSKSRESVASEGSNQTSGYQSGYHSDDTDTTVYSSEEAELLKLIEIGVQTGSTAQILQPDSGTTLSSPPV

Compound | inhibition at 1 µM (KDR) [%] | melting point [°C] | IC50 ([1]; no wash) [µM] | IC50 ([1]; wash out) [µM] | inhibition at 0.1 µM ([2]; ATP conc. 10 μM) [%] | inhibition at 1 µM ([2]; ATP conc. 10 μM) [%] | inhibition at 1 µM ([2]; ATP conc. 1000 μM) [%] | IC50 ([2]; ATP conc. 10 μM) [µM] | inhibition at 0.1 µM ([3]; conc. 100 nM) [%] | inhibition at 1 µM ([3]; conc. 1000 nM) [%] | inhibition at 10 µM ([3]; conc. 10000 nM) [%]
COCCOc1cc2ncnc(NC3=CC(=O)C4(Cc5ccccc5)OC4C3=O)c2cc1OC (centres unmarked) [Example 108, 1-benzyl-4-{[6-methoxy-7-(2-methoxyethoxy)quinazolin-4-yl]amino}-7-oxabicyclo[4.1.0]hept-3-ene-2,5-dione] | 68 | 104 to 108 | 0.0598 | 0.0826 | – | – | – | – | – | – | –
COCCOc1cc2ncnc(NC3=CC(=O)C(Oc4ccc(C)cc4)=CC3=O)c2cc1OC [Example 92, 2-{[6-methoxy-7-(2-methoxyethoxy)quinazolin-4-yl]amino}-5-(4-methylphenoxy)benzo-1,4-quinone] | – | 171 to 172 | – | – | 92 | 93 | 97 | – | – | – | –
COc1cc2ncnc(NC3=CC(=O)C(N(C)c4ccccc4)=CC3=O)c2cc1OC [Example 85, 2-[(6,7-dimethoxyquinazolin-4-yl)amino]-5-[methyl(phenyl)amino]benzo-1,4-quinone] | – | 204 to 206 | – | – | 20 | 62 | 64 | – | – | – | –
COc1cc2ncnc(NC3=CC(=O)C(Oc4ccccc4)=CC3=O)c2cc1OC [Example 95, 2-[(6,7-dimethoxyquinazolin-4-yl)amino]-5-phenoxybenzo-1,4-quinone] | – | 228 to 234 | 0.0042 | 0.0065 | 85 | 96 | 98 | 0.0037 | – | – | –
COCCOc1cc2ncnc(NC3=CC(=O)C(N4CCCCC4)=CC3=O)c2cc1OC [Example 101, 2-{[6-methoxy-7-(2-methoxyethoxy)quinazolin-4-yl]amino}-5-piperidin-1-yl-benzo-1,4-quinone] | – | 197 to 200 | – | – | – | – | – | – | 12 | 36 | 94
COc1cc2ncnc(NC3=CC(=O)C(Nc4ccccc4)=CC3=O)c2cc1OC [Example 86, 2-anilino-5-[(6,7-dimethoxyquinazolin-4-yl)amino]benzo-1,4-quinone] | – | 258 to 261 | 0.0407 | 0.0571 | 58 | 93 | 96 | 0.0407 | – | – | –

The next lines start with results.

inhibition at 1 µM (KDR) [%] | melting point [°C] | IC50 ([1]; no wash) [µM] | IC50 ([1]; wash out) [µM] | inhibition at 0.1 µM ([2]; ATP conc. 10 μM) [%] | inhibition at 1 µM ([2]; ATP conc. 10 μM) [%] | inhibition at 1 µM ([2]; ATP conc. 1000 μM) [%] | IC50 ([2]; ATP conc. 10 μM) [µM] | Compound | inhibition at 0.1 µM ([3]; conc. 100 nM) [%] | inhibition at 1 µM ([3]; conc. 1000 nM) [%] | inhibition at 10 µM ([3]; conc. 10000 nM) [%]
– | 283 to 285 | – | – | 11 | 18 | -12 | – | CNC1=CC(=O)C(Nc2ncnc3cc(OC)c(OC)cc23)=CC1=O [Example 89, 2-[(6,7-dimethoxyquinazolin-4-yl)amino]-5-(methylamino)benzo-1,4-quinone] | – | – | –
32 | 245 to 250 | – | – | 28 | 63 | 48 | – | COc1cc2ncnc(NC3=CC(=O)C(N(C)C)=CC3=O)c2cc1OC [Example 88, 2-[(6,7-dimethoxyquinazolin-4-yl)amino]-5-(dimethylamino)benzo-1,4-quinone] | – | – | –
4 | 249 to 250 | – | – | – | 88 | 82 | – | COc1cc2ncnc(NC3=CC(=O)C(N4CCOCC4)=CC3=O)c2cc1OC [Example 84, 2-[(6,7-dimethoxyquinazolin-4-yl)amino]-5-morpholin-4-ylbenzo-1,4-quinone] | – | – | –
– | 226 to 227 | – | – | 19 | 72 | 85 | – | COc1cc2ncnc(NC3=CC(=O)C(N4CCCCC4)=CC3=O)c2cc1OC [Example 87, 2-[(6,7-dimethoxyquinazolin-4-yl)amino]-5-piperidin-1-ylbenzo-1,4-quinone] | – | – | –
